# Experiments:
# TAMs = test: quantitative proteomics and Ingenuity Pathway Analysis of TAM; format: cell-based, mouse
# Protocol: (§1) Immunosuppressive myeloid cell subsets resembling tumor-infiltrating subsets (g-MDSCs, m-MDSCs and TAMs) were differentiated from mouse bone marrow following published procedures using conditioning medium produced by LLC tumor cells stably expressing GMCSF and MCSF cells. g- and m-MDSCs were purified using the myeloid-derived suppressor cell isolation kit (Miltenyi Biotec, Bergisch, Germany) according to manufacturer's recommendations. MDSCs and TAMs were seeded with 500 nM BML-275 or 50 μM oleuropein and incubated for seven days.
# A unique proteomic experiment was carried out with five biological replicates per sample (m-MDSC, g-MDSC and TAM). Cells were homogenized in a lysis buffer containing 7 M urea, 2 M thiourea 50 mM DTT. The homogenates were spun down at 14000 g for 1 h at 15 °C. Before proteomic analysis, protein extracts were diluted with Laemmli sample buffer in 100 μL and loaded into a 0.75 mm thick polyacrylamide gel with a 4% stacking gel casted over a 12.5% resolving gel. The run was stopped as soon as the front entered 3 mm into the resolving gel so that the whole proteome became concentrated in the stacking/resolving gel interface. Bands were stained with Coomassie Brilliant Blue, excised from the gel and protein enzymatic cleavage was carried out with trypsin (Promega; 1:20, w/w) at 37 °C for 16 h as previously described. Purification and concentration of peptides was performed using C18 Zip Tip Solid Phase Extraction (Millipore).
# Peptide mixtures were separated by reverse phase chromatography using an UltiMate 3000 UHLPC System (Thermo Scientific) fitted with an Aurora packed emitter column (lonopticks, 25 cm×75 μm ID, 1.6 μm C18). Samples were first loaded for desalting and concentration into an Acclaim PepMap column (ThermoFisher, 0.5 cm×300 μm ID, 5 μm C18) packed with the same chemistry as the separating column. Mobile phases were 100% water 0.1% formic acid (FA) (buffer A) and 100% Acetonitrile 0.1% FA (buffer B). Column gradient was developed in a 120 min two step gradient from 5% B to 20% B in 90 min and 20% B to 32% B in 30 min. Column was equilibrated in 95% B for 10 min and 5% B for 20 min. During the whole process, the precolumn was in line with the column and the flow maintained all along the gradient at 300 nl/min. The column temperature was maintained at 40 °C using an integrated column oven (PRSO-V2, Sonation, Biberach, Germany) and interfaced online with the Orbitrap Exploris 480 MS. Spray voltage were set to 2 kV, funnel RF level at 40, and heated capillary temperature at 300 °C. For DDA experiments full MS resolutions were set to […] at m/z 200 and full MS AGC target was set to Standard with an IT mode Auto. Mass range was set to 375-1500. AGC target value for fragment spectra was set to Standard with a resolution of 15,000 and 3 seconds for cycle time. The intensity threshold was kept at 8E3. Isolation width was set at 1.4 m/z. Normalized collision energy was set at 30%. All data were acquired in centroid mode using positive polarity and peptide match was set to off, and isotope exclusion was on.
# Raw files were processed with MaxQuant v1.6.17.0 using the integrated Andromeda Search engine. All data were searched against a target/decoy version of the mouse Uniprot Reference Proteome with March 2021 release. First search peptide tolerance was set to 20 ppm, main search peptide tolerance was set to 4.5 ppm. Fragment mass tolerance was set to 20 ppm. Trypsin was specified as enzyme, […] carbamidomethylation of cysteine was specified as fixed modification and peptide N-terminal acetylation, oxidation of methionine, deamidation of asparagine and glutamine and pyro-glutamate formation from glutamine and glutamate were considered variable modifications with a total of two variable modifications per peptide. […]
# MC38 cells = test: MC38 colorectal cancer mouse tumor model, with rechallenge; format: in vivo, C57BL/6 mice; settings: MC38 s.c.
# Protocol: C57BL/6 female mice were subcutaneously (s.c) injected with […] LLC cells or 0.5×10^6 MC38 cells per animal. When tumor growth reached an average diameter of 3.5 mm (day 0), mice received 100 μg of anti-PD-1 mAb (RPMI-14, BioXCell) intraperitoneally (i.p) at days 0, 5, and 13. Control mice received the same volume of saline. For oleuropein, mice received 300 μg oleuropein at days-1, 2, 4, 6, and 8. As negative control, the same volume of saline was injected.
# The efficacy of all treatments was evaluated every two days by measuring two perpendicular tumor measurements. The size was calculated using the formula: Size=Length x Width. Mice were humanely sacrificed when tumor size reached ~150 mm^2, or when tumor ulceration or evident discomfort were observed. For rechallenge experiments in the MC38 model, mice that rejected tumors were injected s.c. with 5×10^5 MC38 cells in the left flank three months after the first tumor inoculation. Naïve mice were included as controls and development of tumors was evaluated for two months.
# Tumor measurements of in vivo experiments are represented as tumor diameter (mm^2) and plotted either as individual data points for one individual mouse or as mean±SD as indicated in the figure legends. Statistical analysis was performed using one way ANOVA test followed by a Sidak's multiple comparison test at 0.05 level of significance. For in vivo experiments, to compare multiple experimental groups, one-way ANOVA test and Tukey's multiple comparison test were used. Two-tailed Student's t test was applied to compare two experimental groups. Survival of tumor-bearing mice is represented by Kaplan-Meier plots and analyzed by log-rank test. The p values <0.05 were considered statistically significant.
# The efficacy of oleuropein and oleuropein/PD-1 blockade combinations were also tested in a colorectal cancer model. To this end, MC38 cells were subcutaneously implanted in mice and allowed to grow until tumors reached a diameter of about […]. Then, oleuropein was administered intraperitoneally one day prior to anti-PD1 mAb injection. […]
# MDSCs = test: morphology of ex vivo MDSC cultures, phase contrast micrographs (FIG. 2a); format: cell-based, mouse; settings: MDSCs treated with oleuropein
# Protocol: as §1
smiles,measurement,setting,value
C/C=C1/[C@H](O[C@@H]2O[C@H](CO)[C@@H](O)[C@H](O)[C@H]2O)OC=C(C(=O)OC)[C@H]1CC(=O)OCCc1ccc(O)c(O)c1 [oleuropein],activated macrophages and pro-inflammatory activities of macrophages,TAMs,enhances
same,BAG2 signalling,TAMs; IPA,downregulated
same,EIF2 signalling,TAMs; IPA,upregulated
same,Flt3 signalling,TAMs; IPA,upregulated
same,For-mediated (Fcr-mediated) phagocytosis signalling,TAMs; IPA,upregulation
same,Hif1a signalling,TAMs; IPA,downregulated
same,fmlp signalling,TAMs; IPA,upregulated
same,immunosuppressive markers,TAMs; IPA,downregulation
same,mTOR signalling,TAMs; IPA,downregulated
same,For-mediated (Fcr-mediated) phagocytosis signalling,"TAMs; IPA, listed as Oleuropein",upregulated
same,cure rate,MC38 cells; oleuropein 300 μg i.p.,16%
same,survival,MC38 cells; oleuropein 300 μg i.p. and/or anti-PD-1 mAb 100 μg i.p.,significant increase in survival
same,tumor growth,MC38 cells; oleuropein 300 μg i.p. or anti-PD-1 mAb 100 μg i.p.,significantly delayed the growth of MC38 tumors
same,morphology,MDSCs,acquired a dendritic cell-like morphology

# Source: US20260364101A1, “OLEUROPEIN IN THE MANAGEMENT OF CANCER” (FUNDACIÓN MIGUEL SERVET, priority 2023, published 2026)
